These results are taken from ChEMBL document CHEMBL1139343, “Pharmacophore guided discovery of small-molecule human apurinic/apyrimidinic endonuclease 1 inhibitors” (J Med Chem, 2009).

pIC50: −log10 of the molar value.

The target in the test is DNA repair nuclease/redox regulator APEX1 (Homo sapiens, UniProt P27695). Put plainly: Inhibition of purified human recombinant APE1 expressed in Escherichia coli M15 cells.
Sequence of DNA repair nuclease/redox regulator APEX1 (P27695 whole entry): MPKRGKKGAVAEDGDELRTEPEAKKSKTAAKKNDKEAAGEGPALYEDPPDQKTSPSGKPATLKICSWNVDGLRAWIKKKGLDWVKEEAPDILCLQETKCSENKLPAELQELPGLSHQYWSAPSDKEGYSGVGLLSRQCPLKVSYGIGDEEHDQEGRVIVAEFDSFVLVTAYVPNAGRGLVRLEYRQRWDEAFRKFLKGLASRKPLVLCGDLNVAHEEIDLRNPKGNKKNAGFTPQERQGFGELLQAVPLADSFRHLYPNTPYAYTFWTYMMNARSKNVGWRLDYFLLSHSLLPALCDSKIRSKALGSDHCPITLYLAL

As to `Cc1oc(C(=O)O)cc1CSCC(C)C(=O)O` (centres undefined), the pIC50 (commonly the negative decadic logarithm of the IC50, by convention in mol/L) was 4.66.

Regarding `O=C(O)CSc1cc(-c2ccccc2)nc(SCC(=O)O)n1`, the pIC50 is 4.72.

Turning to `CC(Oc1cc(OC(C)C(=O)O)c2c(c1)oc(=O)c1ccccc12)C(=O)O` (centres undefined), the negative logarithm of the IC50 (pIC50) was 5.10.

Take `O=C(O)CSC1CCS(=O)(=O)C1` (centres undefined): the pIC50 was less than 4.00.

As to `CN(C)c1ccc(-c2noc(C3CCN(S(=O)(=O)c4cccc(C(=O)O)c4)CC3)n2)cc1`, the pIC50 was 4.40.

In the case of `O=C(Nc1ccccc1O)c1cccc(S(=O)(=O)N2CCCC2)c1`, the pIC50 was less than 4.00.

Consider `CC1(C)C(C(=O)O)N2C(=O)C(NC(=O)C(C(=O)O)c3ccccc3)C2[S+]1[O-]` (centres undefined), for which the pIC50 was less than 4.00.

With `Nc1ccc(-c2ccc(N)c(S(=O)(=O)O)c2)cc1S(=O)(=O)O`, the pIC50 was less than 4.00.

Turning to `O=C(Nc1ccccc1O)c1cc(S(=O)(=O)N2CCCCC2)ccc1Cl`, the pIC50 was less than 4.00.

Take `O=C(O)CC[S+]([O-])CCC(=O)O`: the pIC50 is 4.40.

Turning to `Cc1nc(N(CCC(=O)O)CCC(=O)O)sc1C(C)(C)C`, the negative-log IC50 (pIC50) was 4.22.

In the case of `O=C(O)c1ccc(Oc2ccc(S(=O)(=O)c3ccc(C(=O)O)c(C(=O)O)c3)cc2)cc1`, the pIC50 is 5.00.

In the case of `CCS(=O)(=O)N1CCCC(c2nc(O)c3nnn(Cc4ccccc4)c3n2)C1` (centres undefined), the pIC50 is less than 4.00.

In the case of `Cc1ccc(OCc2ccoc2C(=O)O)cc1C`, the negative logarithm of the IC50 (pIC50) is 4.96.

As for `Cc1ccc2c(c1)c1nnc(SCc3ccc(CC(=O)O)cc3)nc1n2C(=O)O`, the pIC50 was 4.82.

Turning to `O=C(O)CCn1c(=S)n(CCC(=O)O)c2ccccc21`, the pIC50 is 4.82.

Take `O=C(O)c1oc2ccccc2c1CSc1ccccn1`: the negative-log IC50 (pIC50) was 4.57.

`Cc1oc(CSCCSCc2cc(C(=O)O)c(C)o2)cc1C(=O)O`: the pIC50 was 5.30.

As for `Cc1cc(S(=O)(=O)N2CCOCC2)ccc1OCC(=O)O`, the negative-log IC50 (pIC50) is 4.00.

As to `C(=C\CSc1nnnn1-c1ccccc1)/CSc1nnnn1-c1ccccc1`, the pIC50 was less than 4.00.

For `O=S(=O)(O)CCSc1nnc(SCCS(=O)(=O)O)s1`, the pIC50 was less than 4.00.

`O=C(O)Cn1c(=O)n(CC(=O)O)c2ccccc21`: the pIC50 was 4.80.

`O=C(Nc1cc(S(=O)(=O)O)cc2cc(S(=O)(=O)O)cc(O)c12)c1ccccc1`: the pIC50 is 4.57.

As to `Cc1oc(C(=O)O)cc1CSCc1cc(C(=O)O)oc1C`, the negative-log IC50 (pIC50) is 4.40.

Regarding `Cc1cc(C(=O)O)c(CSCc2cc(C(=O)O)c(C)o2)o1`, the pIC50 is less than 4.00.

Consider `N#C/C(=C\c1ccc(-c2ccccc2[N+](=O)[O-])o1)S(=O)(=O)c1ccccc1`, for which the pIC50 is less than 4.00.

On to `O=C(O)c1cccc(S(=O)(=O)N2CCCC(c3nc(O)c4nnn(Cc5ccccc5Cl)c4n3)C2)c1` (centres undefined), for which the negative-log IC50 (pIC50) was 4.06.

Turning to `COc1ccc(NS(=O)(=O)c2ccc(NC(=O)c3ccccc3C(=O)O)cc2)nn1`, the pIC50 was less than 4.00.

For the compound `CC1CCCCC1N(Cc1ccccc1F)S(=O)(=O)c1ccc(S(=O)(=O)N(C)C)cc1` (centres undefined), the pIC50 is less than 4.00.

On to `O=S(=O)(O)CCCSc1sc2ccccc2[n+]1CCCS(=O)(=O)O`, for which the pIC50 is less than 4.00.

Consider `O=C(O)CNC1CS(=O)(=O)CC1O` (centres undefined), for which the negative-log IC50 (pIC50) was less than 4.00.

Turning to `CCS(=O)(=O)Nc1cc2c(C(C)=O)c(C)n(S(=O)(=O)CC)c2cc1C`, the pIC50 was less than 4.00.

In the case of `Cc1cc(S(=O)(=O)N2CCOCC2)ccc1OCC(=O)NCc1ccncc1`, the negative logarithm of the IC50 (pIC50) was less than 4.00.

In the case of `CCN(Cc1ccccc1)S(=O)(=O)c1ccc(S(=O)(=O)NC2CCC(C)CC2)cc1` (centres undefined), the pIC50 was less than 4.00.

In the case of `CCOc1cc(S(=O)(=O)NCc2ccc3c(c2)OCO3)c(OCC)cc1-n1cnnn1`, the pIC50 was less than 4.00.

Take `O=C(O)c1cccc(S(=O)(=O)N2CCS(=O)(=O)CC2)c1`: the pIC50 was 4.10.

For the compound `Cc1nc2ccc(C(=O)O)cc2c(O)c1CCC(=O)O`, the pIC50 was 4.70.

As for `O=C(O)CN1C(=O)/C(=C2\SC(=S)N(NC(=O)c3ccccc3O)C2=O)c2ccccc21`, the negative logarithm of the IC50 (pIC50) is 4.96.

Regarding `CCCNS(=O)(=O)c1ccc(OCC(=O)NCC2CCCO2)c(C)c1` (centres undefined), the pIC50 was less than 4.00.

As for `O=C(O)CNS(=O)(=O)c1ccc2c(c1)C(=O)c1cc(S(=O)(=O)NCC(=O)O)ccc1-2`, the pIC50 was 4.30.

As to `O=C(O)CN1C(=O)/C(=C2\SC(=S)N(c3ccc(Br)cc3)C2=O)c2ccccc21`, the pIC50 was 5.22.

Take `O=C(O)CNC(=O)c1cc(=O)[nH]c(=O)[nH]1`: the pIC50 was less than 4.00.

With `CN(NC(=O)COc1ccccc1)C1=NS(=O)(=O)c2ccccc21`, the pIC50 was less than 4.00.

As to `O=C(O)CCSc1nnc(SCCC(=O)O)s1`, the pIC50 was 4.77.

As to `Cc1oc(C)c(C(=O)NCC(=O)O)c1C(=O)NCC(=O)O`, the pIC50 was 4.59.

For `O=C(O)CCn1c(=O)[nH]c(=O)n(CCC(=O)O)c1=O`, the pIC50 was 4.48.

Take `O=S(=O)(c1ccc(F)cc1)N1CCCC(c2nc(O)c3nnn(Cc4ccc(F)cc4)c3n2)C1` (centres undefined): the negative logarithm of the IC50 (pIC50) is less than 4.00.

Consider `COc1ccc(N(CC(=O)NC2CCCC2)C(=O)C2CSC(=O)C2)cc1` (centres undefined), for which the pIC50 was less than 4.00.

For the compound `CCS(=O)(=O)N1CCN(S(=O)(=O)c2ccc(C(=O)O)cc2)CC1`, the pIC50 is less than 4.00.

For the compound `C=CCN1C(=S)S/C(=C/C=C2\Sc3ccccc3N2CCCS(=O)(=O)O)C1=S`, the pIC50 was less than 4.00.

With `CCn1c(SCC(=O)c2cccs2)nnc1-c1ccc(NS(C)(=O)=O)cc1`, the pIC50 is less than 4.00.

Turning to `Cc1ccc(-c2ccc(CCC(=O)O)n2CC(=O)O)cc1`, the pIC50 was 4.92.

Turning to `O=C(O)CC1S/C(=N/N=C/c2ccco2)NC1=O` (centres undefined), the pIC50 is less than 4.00.

In the case of `O=S(=O)(O)c1ccccc1Nc1ccnc(Nc2ccccc2S(=O)(=O)O)n1`, the pIC50 was less than 4.00.

For `CCS(=O)(=O)Nc1cc2c(cc1C)C(S(=O)(=O)CC)C1=C2CCC1` (centres undefined), the pIC50 is less than 4.00.

Consider `CC1CCc2c(sc3nc(C4CC4)n4c(SCC(=O)Nc5nccs5)nnc4c23)C1` (centres undefined), for which the pIC50 is less than 4.00.

For the compound `COc1cc(S(=O)(=O)NC2CCCCC2C)ccc1-n1cnnn1` (centres undefined), the pIC50 is less than 4.00.

Take `O=C(O)CN1C(=O)/C(=C2\SC(=S)NC2=O)c2ccccc21`: the pIC50 was 5.05.

Turning to `O=C(CN(Cc1cccs1)S(=O)(=O)c1ccc(S(=O)(=O)NC2CC2)cc1)Nc1ccccc1`, the pIC50 was less than 4.00.

As to `O=C(O)CCNc1ccc(Br)cc1C(=O)O`, the pIC50 was 4.49.

For `COC(=O)C1C(=O)c2c([nH]c(C(=O)OC3CCCCC3)c2C)CC1C` (centres undefined), the pIC50 was less than 4.00.

Regarding `O=[N+]([O-])c1ccccc1-c1nnc(CSc2nnc(-c3ccccc3O)o2)o1`, the pIC50 is less than 4.00.

For `CCC(=O)N(Cc1ccc(S(N)(=O)=O)cc1)C1CC(=O)N(c2ccccc2)C1=O` (centres undefined), the pIC50 was less than 4.00.

Regarding `Cc1cc(S(=O)(=O)N2CCc3ccccc32)ccc1OCC(=O)NCc1ccccn1`, the pIC50 is less than 4.00.

With `O=C(O)CCS(=O)(=O)c1cccc2c(S(=O)(=O)CCC(=O)O)cccc12`, the pIC50 was 4.46.

Take `COC(=O)C1C(=O)C2=C(CC1C)NC(C)=C(C(=O)OC1CCCC1)C2c1ccccc1C` (centres undefined): the pIC50 is less than 4.00.

As to `COc1cc(S(=O)(=O)N(Cc2cccnc2)Cc2ccccc2Cl)ccc1-n1cnnn1`, the pIC50 was less than 4.00.

Take `O=C(O)c1ccc(NS(=O)(=O)c2cccs2)cc1`: the pIC50 was less than 4.00.

For the compound `COc1ccc(/C=C/C(=O)O)cc1S(=O)(=O)NCc1cccnc1`, the pIC50 was less than 4.00.

Take `COC(=O)C1C(=O)c2c([nH]c(C(=O)OCC3CCCO3)c2C)CC1C` (centres undefined): the pIC50 was less than 4.00.

As for `O=C(O)CCc1ccc(-c2cccs2)n1CC(=O)O`, the pIC50 is 5.05.

`O=S(=O)(c1ccccc1)N1CCCC(c2nc(-c3ccc(F)cc3)no2)C1` (centres undefined): the negative-log IC50 (pIC50) is less than 4.00.

With `O=C(O)CCC1(CCC(=O)O)CCCCC1=O`, the pIC50 was less than 4.00.

Regarding `O=C(O)CSc1cccc(C(=O)O)c1`, the pIC50 is 4.48.

Take `O=[N+]([O-])c1ccccc1-c1nnc(CSc2nc(-c3ccccc3O)n[nH]2)o1`: the pIC50 was less than 4.00.

For the compound `O=C(O)CCC1(CCC(=O)O)c2ccccc2-c2ccccc21`, the pIC50 is 4.30.

With `CN(c1ccc(C(=O)Nc2ccc(F)cc2)cc1)S(=O)(=O)c1ccccc1`, the pIC50 is less than 4.00.

`O=C(Nc1ccccc1O)c1cc(S(=O)(=O)N2CCCCCC2)ccc1Cl`: the pIC50 is less than 4.00.

Turning to `O=C(O)c1cccc(NS(=O)(=O)c2cccc3nsnc23)c1`, the pIC50 is less than 4.00.

For `C/C(CCc1ccc2c(c1)OCO2)=N\N=C1/NC(=O)CC(C(=O)O)S1` (centres undefined), the negative-log IC50 (pIC50) was 4.30.

In the case of `O=C(O)c1ccc(S(=O)(=O)c2ccc(Sc3ccc(C(=O)O)c(C(=O)O)c3)cc2)cc1`, the pIC50 is 5.22.

For `O=C(O)CCCN1C(=O)/C(=C2/C(=O)N(CC(=O)O)c3ccccc32)SC1=S`, the pIC50 is 4.92.

`O=C(O)CCc1ccc(-c2ccc(F)cc2)n1CC(=O)O`: the pIC50 is 5.05.

Regarding `O=S(=O)(O)CC(O)CSc1nc2ccccc2s1` (centres undefined), the pIC50 was 4.00.

Take `Cc1nc(NC(=O)c2ccco2)sc1C(=O)O`: the pIC50 is less than 4.00.

For `O=C(CN1C(=O)c2ccccc2S1(=O)=O)Nc1ccc(Cl)c(C(=O)O)c1`, the pIC50 is less than 4.00.

With `Cc1cc(CSCc2cc(C(=O)O)c(C)o2)oc1C(=O)O`, the pIC50 was 5.22.

With `Nc1ncnc2[nH]c(SCCC(=O)O)nc12`, the pIC50 is 4.70.

As to `O=C(CCc1nc(-c2ccc(Cl)cc2)no1)Nc1nnn[nH]1`, the pIC50 is less than 4.00.

For `Cc1ccc(S(=O)(=O)Nc2ccc(NC(=O)CN3CCCCC3)c(Cl)c2)cc1`, the pIC50 was less than 4.00.

As for `O=C(Nc1nnc(CCS(=O)(=O)c2ccc3ccccc3c2)s1)c1ccccc1Cl`, the pIC50 was less than 4.00.

On to `O=S(=O)(Nc1ccc(NS(=O)(=O)c2cccs2)cc1)c1cccs1`, for which the pIC50 was less than 4.00.

As to `NC(=O)CSc1nc2ccc(NC(=O)c3ccccc3C(=O)O)cc2s1`, the pIC50 is 4.57.

Consider `Cc1ccc(S(=O)(=O)CCc2nnc(NC(=O)CC3CC4CCC3C4)s2)cc1` (centres undefined), for which the pIC50 is less than 4.00.

For `CCOC(=O)c1cnc(SC(C)C(=O)O)nc1N` (centres undefined), the pIC50 is less than 4.00.

For the compound `CCCCOC(=O)c1ccc(NC(=O)CSc2nnnn2CC)cc1`, the pIC50 was less than 4.00.

Take `O=C(O)CC1OC(=O)c2cc3c(cc21)C(=O)OC3CC(=O)O` (centres undefined): the pIC50 was 4.96.

`O=C(O)CSc1nnc(-c2ccc(S(=O)(=O)N3CCOCC3)cc2)n1Cc1ccco1`: the pIC50 was less than 4.00.

`O=C(O)c1ccccc1C(=O)NCc1ccc(CNC(=O)c2ccccc2C(=O)O)cc1`: the pIC50 was 4.52.
